We go through 14 compounds from patent US9932350B2, “Inhibitors of IRAK4 activity” (MERCK SHARP & DOHME CORP., priority 2014, dated 2018).

The target in this assay is GST tagged IRAK4 (Homo sapiens (Human), UniProt Q9NWZ3). In words: IRAK4 Kinase Assay (IMAP fluorescence polarization). The class given is biochemical. Conditions: 0.5 nM GST tagged IRAK4, 100 μM ATP, 30 minutes at 25° C. Put shortly:
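GST-tagged IRAK4 (0.5 nM) phosphorylates 100 nM fluorescent peptide with 100 μM ATP in 10 mM Tris pH 7.2, 1 mM MgCl2, 1 mM DTT, 0.01% Tween 20 for 30 min at 25 °C. Phosphorylation read as IMAP nanoparticle-binding fluorescence polarization after stop reagent.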

GST tagged IRAK4, sequence (Q9NWZ3 whole entry): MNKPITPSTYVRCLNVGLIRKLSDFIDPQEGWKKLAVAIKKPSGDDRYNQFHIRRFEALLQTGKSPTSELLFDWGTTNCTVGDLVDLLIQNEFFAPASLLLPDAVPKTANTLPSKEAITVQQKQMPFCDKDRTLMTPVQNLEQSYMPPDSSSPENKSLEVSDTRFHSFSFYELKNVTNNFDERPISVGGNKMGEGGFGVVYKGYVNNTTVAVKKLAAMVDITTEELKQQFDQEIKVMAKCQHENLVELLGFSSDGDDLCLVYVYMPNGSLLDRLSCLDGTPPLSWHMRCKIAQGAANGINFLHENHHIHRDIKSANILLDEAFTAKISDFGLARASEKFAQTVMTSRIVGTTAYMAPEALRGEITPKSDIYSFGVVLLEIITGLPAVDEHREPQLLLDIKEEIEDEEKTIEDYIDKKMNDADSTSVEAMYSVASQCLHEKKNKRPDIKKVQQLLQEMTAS

As for `N#Cc1ccc2ncnc(NC3CCC(N4CCCC(C(F)(F)F)C4)CC3)c2c1` (single isomer, unassigned) [Example 3-3, 4-({cis or trans-4-[(3R or S)-3-(trifluoromethyl)piperidin-1-yl]cyclohexyl}amino) quinazoline-6-carbonitrile], the IC50 was 7 nM.
With `N#Cc1ccc2ncnc(N[C@H]3CC[C@H](NCC(F)(F)F)CC3)c2c1` [Example 3-21, 4-({trans-4-[(2,2,2-trifluoroethyl)amino]cyclo-hexyl}amino)quinazoline-6-carbonitrile] the figure was 512 nM.
`N[C@H]1CC[C@H](Nc2ncnc3ccc(Br)cc23)CC1` [Example 1-2, trans-N-(6-bromoquinazolin-4-yl)cyclohexane-1,4-diamine] displayed a half-maximal inhibitory concentration (IC50) of 27 nM.
`N#Cc1ccc2ncnc(N[C@H]3CC[C@H](N4CCCC(F)C4)CC3)c2c1` (stereo partly drawn) [Example 3-35, 4-{[trans-4-(3-fluoropiperidin-1-yl)cyclohexyl]amino} quinazoline-6-carbonitrile]: the IC50 turned out to be 38 nM.
Turning to `CC1CC(N2CCOCC2)CCC1Nc1ncnc2ccc(C#N)cc12` (single isomer, unassigned) [Example 8-3, 4-{[(1S,2R,4S or 1R,2S,4R)-2-methyl-4-(morpholin-4-yl)cyclohexyl]amino} quinazoline-6-carbonitrile], the concentration for half-maximal inhibition (IC50) stood at 26 nM.
As to `CC(C)(C)C(=O)N1CCN([C@H]2CC[C@H](Nc3ncnc4ccc(C#N)cc34)CC2)CC1` [Example 6-3, 4-({trans-4-[4-(2,2-dimethylpropanoyl)piperazin-1-yl]cyclohexyl}amino) quinazoline-6-carbonitrile], the half-inhibitory concentration (IC50) was 8 nM.
`N#Cc1ccc2ncnc(N[C@H]3CC[C@H](N4CCN(C(=O)C(O)C5CC5)CC4)CC3)c2c1` (stereo partly drawn) [Example 6-20, 4-[(trans-4-{4-[cyclopropyl(hydroxy)acetyl]piperazin-1-yl}cyclohexyl)amino] quinazoline-6-carbonitrile] had a half-inhibitory concentration (IC50) of 8 nM.
Turning to `N#Cc1ccc2ncnc(N[C@H]3CC[C@H](N4CCN(C(=O)CC5CC5)CC4)CC3)c2c1` [Example 6-17, 4-({trans-4-[4-(cyclopropylacetyl)piperazin-1-yl]cyclohexyl}amino) quinazoline-6-carbonitrile], inhibition was half-maximal at 9 nM (IC50).
`CC1(C(=O)N2CCN([C@H]3CC[C@H](Nc4ncnc5ccc(C#N)cc45)CC3)CC2)CC1` [Example 6-8, 4-[(trans-4-{4-[(1-methylcyclopropyl)carbonyl]piperazin-1-yl}cyclohexyl)amino] quinazoline-6-carbonitrile] showed an IC50 of 15 nM.
On to `COc1cc2c(N[C@H]3CC[C@H](N4CCOCC4)CC3)ncnc2cc1F` [Example 2-12, 7-fluoro-6-methoxy-N-[trans-4-(morpholin-4-yl)cyclohexyl]quinazolin-4-amine], for which the IC50 turned out to be 58 nM.
In turn, `N#Cc1ccc2ncnc(N[C@H]3CC[C@H](N4CCCC4)CC3)c2c1` [Example 3-44, 4-{[trans-4-(pyrrolidin-1-yl)cyclohexyl]amino} quinazoline-6-carbonitrile] had an IC50 of 15 nM.
`Brc1ccc2ncnc(N[C@H]3CC[C@H](N4CCOCC4)CC3)c2c1` [Example 2-2, 6-Bromo-N-[trans-4-(morpholin-4-yl)cyclohexyl]quinazolin-4-amine] showed an IC50 of 5 nM.
Regarding `N#Cc1ccc2ncnc(N[C@H]3CC[C@H](N4CCOC(C(F)(F)F)C4)CC3)c2c1` (single isomer, unassigned) [Example 3-49, 4-({trans-4-[(2R or 2S)-2-(trifluoromethyl)morpholin-4-yl]cyclohexyl}amino) quinazoline-6-carbonitrile], the IC50 came to 131 nM.
On to `Fc1cc2ncnc(N[C@H]3CC[C@H](N4CCOCC4)CC3)c2cc1Br` [Example 2-11, 6-bromo-7-fluoro-N-[trans-4-(morpholin-4-yl)cyclohexyl]quinazolin-4-amine], for which it took 15 nM to reach half-maximal inhibition (IC50).
